Assay results: patent US11471460B2, “Autophagy modulators for use in treating cancer” (The United States of America,as represented by the …, priority 2017, dated 2022)
pEC50, pKd: −log10 of the molar value. Entries after “also recorded” stand apart in the source; their conditions may differ.

Columns and labels:
[1] = tested on: U2OS cells; experiment: GFP-LC3 / LAMP1-RFP co-localization (autolysosome formation); format: cell-based, human; settings: compound 1 or rapamycin and compound 1, 4 hours
Procedure: Confocal microscopic images are shown in FIG. 13A of U2OS cells that were co-transfected with a GFP-LC3B expression vector to label autophagosomes green and a LAMP1-RFP expression vector to label lysosomes red. Cells were then treated for 4 hrs with 1 μM rapamycin to induce autophagy, or with 1 μM compound 1 to disrupt autophagy, or with both 1 μM rapamycin and 1 μM compound 1. Cells were then fixed and viewed by confocal microscopy. Nuclei were stained with DAPI. […] The mean±SEM results from 50 cells is given for two independent experiments.
To determine whether or not the absence of an acidic environment resulted from failure of lysosomes to fuse with autophagosomes, cells were transfected with both GFP-LC3 and LAMP1-RFP expression vectors, and then cultured for 4 hours in the presence of vehicle, rapamycin, or both rapamycin and compound 1 (FIG. 13). Rapamycin is an established inducer of autophagy (42, 43). As expected, rapamycin induced accumulation of GFP-LC3 labeled autophagosomes (green), some of which were autolysosomes, as shown by co-localization with LAMP1-RFP on control cells. In contrast, GFP-LC3 and LAMP1-RFP labeled different populations of vesicles in cells cultured with either compound 1 or rapamycin and compound 1, despite the fact that the density of autophagosomes was at least 3-fold greater.

[2] = tested on: osteosarcoma U2OS cells; experiment: Induction of cytoplasmic vacuoles (enlarged lysosomes) in U2OS cells, light microscopy; format: cell-based, human
Description: Vehicle is the concentration of DMSO that was introduced by addition of compounds.
These effects are dependent on the compound selected, its concentration and the length of time cells are exposed to the compound.
(§1) Cells were obtained from the American Type Culture Collection. BORCS5-KO HeLa cells have been described previously. Osteosarcoma U2OS were routinely seeded in 6-well plates (0.5×10^5 cells/well) and cultured in Dulbecco's Modified Eagle's medium supplemented with L-Glutamine, 4.5 g/L Glucose, Sodium Pyruvate, Phenol Red, and either heat-inactivated or normal 10% fetal calf serum at 37° C. in 5% CO2. Approximately 15-19 hours later, the indicated compound was added in 1:1000 dilutions. Results were the same using either heat-inactivated or normal fetal calf serum. Melanoma A375, embryonic kidney 293T and human foreskin fibroblast Hs27 cells were cultured in the same medium, except that cells were seeded into 12-well plates at 10^3 cells/well.
Phase contrast photographs were taken on an Olympus CKX41 microscope. Confocal photographs were taken on a Leica TCS-SP5II. For immunofluorescence microscopy, the cells were fixed in 4% paraformaldehyde (Electron Microscopy Sciences, 15714) in PBS for 12 min, permeabilized with 0.2% Triton X-100 in PBS for 10 min, and blocked in 0.2% BSA (Sigma-Aldrich, A7030) in PBS for 30 min at 37° C. For endogenous LC3 staining, cells were permeabilized in methanol for 20 min at −20° C. after the paraformaldehyde fixation. The cells were sequentially incubated with primary antibodies (LAMP1: Developmental Studies Hybridoma Bank; LC3 and LAMTOR4: Cell Signaling Technology; FLAG epitope: Sigma-Aldrich) and secondary antibodies conjugated to Alexa Fluor dyes (Life Technologies) diluted with 0.2% BSA in PBS for 30 min at 37° C. Coverslips were mounted on glass slides using Fluoromount-G (Electron Microscopy Sciences, 17984-24). Cells were imaged using a Zeiss LSM880 with AiryScan confocal microscope (Carl Zeiss AG, Oberkochen, Germany) or a Leica TCS-SP5II. The final composite images were created and properly analyzed for lysosomal size examination using ImageJ (NIH).

[3] = tested on: melanoma A375 cells; experiment: Tumor formation by pretreated A375 cells in nude mice; format: in vivo
Description: (§2) Viability was quantified by trypan blue dye exclusion method. The images confirmed the presence of cytoplasmic vacuolization occurred only in the compound 1 treated cells. […] The left flank received cells pretreated with vehicle and the right flank received cells pretreated with compound 1. At 27 days later, mice were photographed, and tumors excised. […] Error bars indicate the SEM for 5 tumors.
(§3) To determine whether or not compound 1 could inhibit progression of a tumor that arose from autophagy-dependent cancer cells, melanoma A375 cells were pretreated with either vehicle or compound 1 and then assayed for their ability to produce a tumor. Pretreatment consisted of culturing A375 cells for 8 hours with 10 μM compound 1. The cells were then recovered by trypsinization and their viability confirmed by trypan blue exclusion. […] The cells were then inoculated subcutaneously into the flanks of immuno-compromised mice.

[4] = molecular target: T1, PIKFYVE (Homo sapiens, UniProt Q9Y2I7); experiment: DiscoverX KINOMEscan dissociation constant; format: binding
T1 construct: purchased DiscoverX (KINOMEscan service, San Diego, Calif.)
Procedure: Each kinase was tagged with a unique DNA sequence that allowed the amount of protein bound to the solid support to be quantified by PCR. The top three targets for compound 1 were PIKFYVE, PIP4K2C and MTOR. […] Dissociation constants (Kd) were determined from the amount of kinase captured on the solid support as a function of the test compound concentration (nM) on a log10 scale. Mean Kd values (±range) are given for each compound. The ratio of PIP4K2C to PIKFYVE indicates the relative specificity for these two kinases.
To address this hypothesis, a panel of 468 human kinases were screened for their ability to bind compound 1. […] The top two candidates were PIKFYVE (phosphoinositide kinase FYVE-type zinc finger containing) and PIP4K2C (phosphatidylinositol-5-phosphate 4-kinase). PIKFYVE is a kinase that is essential for mouse development (49) and that prevents endosome enlargement and cytoplasmic vacuolization (50, 51). PIP4K2C is a kinase that is not essential for mouse growth and viability, but it is essential for the immune system (52), mTORC1 signaling (53), and regulation of autophagy (54). The third candidate was MTOR, a kinase that regulates autophagy (55). Therefore, the binding constants (Kd) for all five members of the compound 1-family were determined for each of these three proteins from two independent titration curves, as shown for compound 1.

[5] = tested on: embryonic kidney cells; experiment: Viability of embryonic kidney cells; format: cell-based; settings: Homo sapiens; embryonic kidney cells; read-out: EC50
Procedure: FIG. 18 summarizes results from 13 human cell lines. All cells were seeded at the same cell density in a rich culture medium and assayed under identical conditions. Compound 1 efficacy is the ratio of cell viability with compound 1 to cell viability with chloroquine derivatives.
as §1, with “Results were the same using either heat-inactivated or normal fetal calf serum.” left out

[6] = Viability of A375 cells after pretreatment, trypan blue exclusion; format: cell-based; settings: human, A375 melanoma cells, vehicle 94%, read-out: Viable cells after pretreatment
Description: as §2, §3

T1 sequence (Q9Y2I7 whole entry): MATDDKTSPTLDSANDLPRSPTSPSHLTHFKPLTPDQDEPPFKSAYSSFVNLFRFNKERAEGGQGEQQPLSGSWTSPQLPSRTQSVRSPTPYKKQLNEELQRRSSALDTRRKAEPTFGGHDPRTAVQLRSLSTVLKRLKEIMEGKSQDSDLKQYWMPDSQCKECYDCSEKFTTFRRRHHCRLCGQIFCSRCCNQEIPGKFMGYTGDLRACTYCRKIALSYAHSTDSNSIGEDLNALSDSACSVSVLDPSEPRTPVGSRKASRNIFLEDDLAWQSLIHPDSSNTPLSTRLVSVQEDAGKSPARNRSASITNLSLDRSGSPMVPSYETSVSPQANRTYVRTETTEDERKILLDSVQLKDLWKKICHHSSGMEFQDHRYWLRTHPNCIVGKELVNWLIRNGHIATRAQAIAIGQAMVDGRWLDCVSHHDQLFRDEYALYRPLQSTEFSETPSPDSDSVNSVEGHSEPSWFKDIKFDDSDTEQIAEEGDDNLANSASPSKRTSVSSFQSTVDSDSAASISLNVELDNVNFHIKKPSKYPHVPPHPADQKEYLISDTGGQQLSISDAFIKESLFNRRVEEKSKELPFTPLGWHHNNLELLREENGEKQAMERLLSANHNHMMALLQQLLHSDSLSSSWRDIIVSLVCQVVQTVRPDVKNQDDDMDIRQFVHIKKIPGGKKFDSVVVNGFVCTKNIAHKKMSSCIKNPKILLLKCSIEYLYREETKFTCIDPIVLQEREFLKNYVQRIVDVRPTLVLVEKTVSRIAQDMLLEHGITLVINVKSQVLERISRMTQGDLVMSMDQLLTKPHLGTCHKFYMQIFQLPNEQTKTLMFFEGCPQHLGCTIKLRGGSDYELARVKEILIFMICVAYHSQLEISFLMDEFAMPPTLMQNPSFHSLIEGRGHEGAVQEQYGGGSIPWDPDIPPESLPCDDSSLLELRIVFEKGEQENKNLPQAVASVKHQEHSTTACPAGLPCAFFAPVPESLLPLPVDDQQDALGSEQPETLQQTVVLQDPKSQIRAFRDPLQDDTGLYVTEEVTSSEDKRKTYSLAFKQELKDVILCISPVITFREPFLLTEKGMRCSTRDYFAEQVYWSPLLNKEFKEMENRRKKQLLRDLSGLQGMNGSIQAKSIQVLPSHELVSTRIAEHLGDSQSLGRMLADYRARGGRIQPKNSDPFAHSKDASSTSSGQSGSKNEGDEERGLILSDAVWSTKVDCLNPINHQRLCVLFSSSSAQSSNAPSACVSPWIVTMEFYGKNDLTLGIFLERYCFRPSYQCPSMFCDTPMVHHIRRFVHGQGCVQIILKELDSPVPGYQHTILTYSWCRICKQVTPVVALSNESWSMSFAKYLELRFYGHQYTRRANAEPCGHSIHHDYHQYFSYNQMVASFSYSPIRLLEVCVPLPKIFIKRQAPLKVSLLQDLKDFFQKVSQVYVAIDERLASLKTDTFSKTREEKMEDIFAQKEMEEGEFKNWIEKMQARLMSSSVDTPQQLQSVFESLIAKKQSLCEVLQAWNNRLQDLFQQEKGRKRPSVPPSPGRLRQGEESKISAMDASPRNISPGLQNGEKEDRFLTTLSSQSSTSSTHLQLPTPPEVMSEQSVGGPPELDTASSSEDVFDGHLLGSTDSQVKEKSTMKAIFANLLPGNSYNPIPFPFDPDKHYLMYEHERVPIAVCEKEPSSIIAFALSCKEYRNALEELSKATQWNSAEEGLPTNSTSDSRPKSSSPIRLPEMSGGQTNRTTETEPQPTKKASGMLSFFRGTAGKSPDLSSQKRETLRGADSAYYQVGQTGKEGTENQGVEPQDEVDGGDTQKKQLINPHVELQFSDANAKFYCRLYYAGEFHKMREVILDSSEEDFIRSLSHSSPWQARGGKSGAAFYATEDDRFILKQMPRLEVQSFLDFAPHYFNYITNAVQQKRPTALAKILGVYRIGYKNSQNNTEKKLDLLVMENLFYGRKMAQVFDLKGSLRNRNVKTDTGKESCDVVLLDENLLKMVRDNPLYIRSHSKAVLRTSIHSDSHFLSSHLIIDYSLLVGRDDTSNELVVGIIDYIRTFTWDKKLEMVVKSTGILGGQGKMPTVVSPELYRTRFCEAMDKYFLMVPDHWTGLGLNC

## C1=Nc2ccccc2/C1=C/NNc1nc(Nc2ccccc2)nc(N2CCOCC2)n1 [compound 1]
[1]
  Density of autophagosomes relative to rapamycin alone: at least 3 fold
[2]; U2OS cells
  Time to detect vacuoles by light microscopy: ≤ 20 min
[2]; U2OS cells, compound 1 compared to compound 3
  Variation of the concentration required to induce vacuolization, most potent compared to least potent: 400 fold
[2]; by 4 hours
  Concentration at which 80% of the cells were vacuolated: 0.01 to 0.1 µM
[2]; same U2OS cells
  Concentration to induce LC3-II accumulation, inhibit proliferation or viability relative to concentration to observe vacuolization: about 30 fold
[3]; A375 cells pretreated 8 hours with 10 μM, subcutaneous
  Tumor xenograft formation by pretreated cells: decidedly less efficient; also recorded: inhibited their ability to form a tumor
[3]; mouse weight
  Ill effects on mice: no ill effects on mice
[4]
  Standing within the family for PIKFYVE binding: the most potent member
[4]; mean of two independent titration curves
  pKd: 9.00
[5]
  pEC50: < 5.00
[6]
  viability at 8 h, 10 µM: 92%
